# Molecular target: T1, WT/R232 STING protein (Homo sapiens, UniProt Q86WV6, H232R)
# T1 construct: host or cells: HEK293T
# Assay: Luciferase reporter assay in HEK293T-hSTING-Luciferase cells, WT/R232
# Type: cell-based
# Conditions: 20 hr stimulation, read-out: R232 Activity (EC50 range)
# Text: • a) Stable STING expressing cells—Stable HEK293T STING-expressing cell lines were generated using plasmids purchased from Invivogen, Calif., USA, that contain STING cDNA cloned into the pUNO-1 vector under hEF1-HTLV promoter and containing the Blasticidin selection cassette. The plasmids hSTING(R232), hSTING(H232), hSTING(HAQ) were directly procured from Invivogen while hSTING (AQ) and hSTING (Q) were derived from hSTING(HAQ) and hSTING (R232) plasmids respectively by using a PCR based site directed mutagenesis method. These vectors were individually transfected into HEK293T cells using Lipofectamine (Invitrogen) and transfected cells were selected under Blasticidin selection. These transfected cells were further subjected to clonal selection using the limiting dilution method to obtain clonally pure populations of HEK cells transfected with each of the above mentioned human STING variants. Only those clones were selected in which ligand independent activation of STING was minimal. • b) Stable Luciferase reporter gene expressing cells—Stable HEK293T Luciferase reporter gene expressing cell lines were generated using pCDNA4 plasmids under an IRF-inducible promoter. This promoter is comprised of five tandem interferon-stimulated response elements (ISRE) fused to an ISG54 minimal promoter. This vector was transfected into HEK293T cells using Lipofectamine (Invitrogen) and transfected cells were selected under Zeocin selection. These transfected cells were further subjected to clonal selection using the limiting dilution method to obtain clonally pure populations of HEK cells transfected the Luciferase reporter construct. Only those clones were selected in which ligand independent induction of luciferase was minimal.
# 5×10^5 clonally selected HEK293T-hSTING-Luciferase cells were seeded in 384-well plates in growth medium and stimulated with novel compounds. After 20 hr of stimulation supernatant were removed and secretary reporter gene activity were measured using the Quanti-Luc detection system (Invivogen) on a Spectramax i3X luminometer.
# All compounds were first tested in a primary screen using WT/R232 STING protein to obtain a ‘fold-induction’ over baseline levels of protein activity.
# T1 sequence (Q86WV6 whole entry H232R): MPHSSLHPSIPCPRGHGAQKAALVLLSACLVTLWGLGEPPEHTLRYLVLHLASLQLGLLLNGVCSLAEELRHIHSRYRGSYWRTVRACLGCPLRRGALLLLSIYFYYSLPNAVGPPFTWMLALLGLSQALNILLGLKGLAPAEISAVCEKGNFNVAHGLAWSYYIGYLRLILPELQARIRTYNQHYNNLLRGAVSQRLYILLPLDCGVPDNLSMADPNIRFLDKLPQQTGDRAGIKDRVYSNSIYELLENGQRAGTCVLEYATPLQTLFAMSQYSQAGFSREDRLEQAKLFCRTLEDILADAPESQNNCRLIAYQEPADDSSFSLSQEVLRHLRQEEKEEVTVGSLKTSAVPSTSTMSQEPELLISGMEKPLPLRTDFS
row,EC50 [µM],Structure (SMILES)
1,> 10,"O=C(NCC1CCCC1)c1ccc2c(c1)N(Cc1c(F)cccc1Cl)C(=O)CS2 [Example 35, 4-(2-chloro-6-fluorobenzyl)-N-(cyclopentyl-methyl)-3-oxo-3,4-dihydro-2H-benzo[b][1,4] thiazine-6-carboxamide]"
2,> 10,"Cc1ccc(CNC(=O)c2ccc3c(c2)N(Cc2c(F)cccc2Cl)C(=O)CS3)cn1 [Example 36, 4-(2-chloro-6-fluorobenzyl)-N-((6-methyl-pyridin-3-yl)methyl)-3-oxo-3,4-dihydro-2H-benzo[b-1,4]thiazine-6-carboxamide]"
3,1 to 10,"O=C(NCc1cccc(F)c1)c1ccc2c(c1)N(Cc1c(F)cccc1Cl)C(=O)CS2 [Example 38, 4-(2-chloro-6-fluorobenzyl)-N-(3-fluorobenzyl)-3-oxo-3,4-dihydro-2H-benzo[b-1,4]thiazine-6-carboxamide]"
4,> 10,"N#CCC(CNC(=O)c1ccc2c(c1)N(Cc1c(F)cccc1Cl)C(=O)CS2)c1ccccc1 (stereo not shown) [Example 41, 4-(2-chloro-6-fluorobenzyl)-N-(3-cyano-2-phenylpropyl)-3-oxo-3,4-dihydro-2H-benzo[b-1,4]thiazine-6-carboxamide]"
5,> 10,"O=C(NC(c1ccccc1)c1ccccc1)c1ccc2c(c1)N(Cc1ccccc1F)C(=O)CS2 [Example 42, N-benzhydryl-4-(2-fluorobenzyl)-3-oxo-3,4-dihydro-2H-benzo[b][1,4] thiazine-6-carboxamide]"
6,> 10,"O=C(NCC(c1ccccc1)C1CCCCC1)c1ccc2c(c1)N(Cc1c(F)cccc1Cl)C(=O)CS2 (stereo not shown) [Example 43, 4-(2-chloro-6-fluorobenzyl)-N-(2-cyclohexyl-2-phenylethyl)-3-oxo-3,4-dihydro-2H-benzo[b][1,4] thiazine-6-carboxamide]"
7,> 10,"O=C(NCC1CCCN(Cc2ccccc2)C1)c1ccc2c(c1)N(Cc1ccccc1F)C(=O)CS2 (stereo not shown) [Example 44, N-((1-benzylpiperidin-3-yl)methyl)-4-(2-fluorobenzyl)-3-oxo-3,4-dihydro-2H-benzo[b][1,4] thiazine-6-carboxamide]"
8,> 10,"O=C(NCC1CCN(c2ccccc2)CC1)c1ccc2c(c1)N(Cc1ccccc1F)C(=O)CS2 [Example 45, 4-(2-fluorobenzyl)-3-oxo-N-((1-phenyl-piperidin-4-yl)methyl)-3,4-dihydro-2H-benzo[b][1,4] thiazine-6-carboxamide]"
9,> 10,"O=C(NCc1ccccc1-c1ccccc1)c1ccc2c(c1)N(Cc1c(F)cccc1Cl)C(=O)CS2 [Example 46, N-([1,1′-biphenyl]-2-ylmethyl)-4-(2-chloro-6-fluorobenzyl)-3-oxo-3,4-dihyddro-2H-benzo[b][1,4] thiazine-6-carboxamide]"
10,> 10,"O=C(NCc1cccc(-c2ccccc2)c1)c1ccc2c(c1)N(Cc1c(F)cccc1Cl)C(=O)CS2 [Example 47, N-([1,1′-biphenyl]-3-ylmethyl)-4-(2-chloro-6-fluorobenzyl)-3-oxo-3,4-dihydro-2H-benzo[b][1,4] thiazine-6-carboxamide]"
11,> 10,"O=C(NCC1CCN(Cc2ccccc2)CC1)c1ccc2c(c1)N(Cc1c(F)cccc1Cl)C(=O)CS2 [Example 48, N-((1-benzylpiperidin-4-yl)methyl)-4-(2-chloro-6-fluorobenzyl)-3-oxo-3,4-dihydro-2H-benzo[b][1,4] thiazine-6-carboxamide]"
12,> 10,"O=C(NCC1CCCN(c2ccccc2)C1)c1ccc2c(c1)N(Cc1ccccc1F)C(=O)CS2 (stereo not shown) [Example 49, 4-(2-fluorobenzyl)-3-oxo-N-((1-phenyl-piperidin-3-yl)methyl)-3,4-dihydro-2H benzo[b][1,4] thiazine-6-carboxamide]"
13,> 10,"O=C(NCc1ccoc1)c1ccc2c(c1)N(Cc1ccccc1)C(=O)CS2 [Example 50, 4-benzyl-N-(furan-3-ylmethyl)-3-oxo-3,4-dihydro-2H-benzo[b-1,4]thiazine-6-carboxamide]"
